In ChEMBL document CHEMBL1909046, “DrugMatrix in vitro pharmacology data”:

Tests used:
[1] = target: T1, 5-hydroxytryptamine receptor 2C (Homo sapiens, UniProt P28335); test: DRUGMATRIX: Serotonin (5-Hydroxytryptamine) 5-HT2C radioligand binding (ligand: [3H] Mesulergine); format: cell membranes, CHO-K1, Membrane; conditions: Not Active = under 50% inhibition at 10 µM
T1 sequence (P28335 whole entry): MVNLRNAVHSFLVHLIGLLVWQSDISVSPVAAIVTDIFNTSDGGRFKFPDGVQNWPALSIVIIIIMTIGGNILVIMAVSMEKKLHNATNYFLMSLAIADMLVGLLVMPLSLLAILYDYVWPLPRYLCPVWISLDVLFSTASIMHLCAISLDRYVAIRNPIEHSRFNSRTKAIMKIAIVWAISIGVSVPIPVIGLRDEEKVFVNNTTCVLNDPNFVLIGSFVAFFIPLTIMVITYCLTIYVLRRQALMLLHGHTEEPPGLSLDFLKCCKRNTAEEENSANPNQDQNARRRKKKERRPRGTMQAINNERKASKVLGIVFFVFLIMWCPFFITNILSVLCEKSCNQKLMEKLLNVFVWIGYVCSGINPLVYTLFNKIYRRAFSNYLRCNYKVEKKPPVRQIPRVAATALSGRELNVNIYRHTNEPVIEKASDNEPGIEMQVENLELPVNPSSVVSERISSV

[2] = DRUGMATRIX: Calcium Channel Type L, Dihydropyridine radioligand binding (ligand: [3H] Nitrendipine); format: cell membranes, Rattus norvegicus, Wistar, Cerebral cortex, Membrane; conditions: Not Active = under 50% inhibition at 10 µM
[3] = target: T2, Neuropeptide Y receptor type 1 (Homo sapiens, UniProt P25929); format: cell membranes, Membrane; conditions: sk-n-mc; also: in other assays of this panel Not Active means under 50% inhibition at 10 µM
T2 sequence (P25929 whole entry): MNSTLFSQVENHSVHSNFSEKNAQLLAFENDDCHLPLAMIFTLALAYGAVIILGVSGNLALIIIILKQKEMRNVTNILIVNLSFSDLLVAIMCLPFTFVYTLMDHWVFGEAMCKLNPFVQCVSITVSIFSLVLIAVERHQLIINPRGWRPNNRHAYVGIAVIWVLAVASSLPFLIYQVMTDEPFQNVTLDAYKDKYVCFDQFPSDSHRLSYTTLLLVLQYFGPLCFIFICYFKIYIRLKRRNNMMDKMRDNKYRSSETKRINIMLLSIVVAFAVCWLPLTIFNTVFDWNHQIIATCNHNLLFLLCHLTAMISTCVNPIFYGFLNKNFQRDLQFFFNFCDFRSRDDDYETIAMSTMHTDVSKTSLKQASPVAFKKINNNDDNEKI

[4] = target: Mitogen-activated protein kinase 1 (Homo sapiens, UniProt P28482); test: DRUGMATRIX: Protein Serine/Threonine Kinase, ERK2 enzyme inhibition (substrate: Myelin Basic Protein); design: species or system Escherichia coli; conditions: Not Active = under 50% inhibition at 10 µM
[5] = target: Cytochrome P450 2C19 (Homo sapiens, UniProt P33261); conditions: bti-tn-5b1-4; also: in other assays of this panel Not Active means under 50% inhibition at 10 µM
[6] = target: T3, Progesterone receptor (Bos taurus, UniProt Q690N0); test: DRUGMATRIX: Progesterone radioligand binding (ligand: [3H] R-5020); format: tissue-based, Uterus; conditions: Not Active = under 50% inhibition at 10 µM
T3 sequence (Q690N0 whole entry): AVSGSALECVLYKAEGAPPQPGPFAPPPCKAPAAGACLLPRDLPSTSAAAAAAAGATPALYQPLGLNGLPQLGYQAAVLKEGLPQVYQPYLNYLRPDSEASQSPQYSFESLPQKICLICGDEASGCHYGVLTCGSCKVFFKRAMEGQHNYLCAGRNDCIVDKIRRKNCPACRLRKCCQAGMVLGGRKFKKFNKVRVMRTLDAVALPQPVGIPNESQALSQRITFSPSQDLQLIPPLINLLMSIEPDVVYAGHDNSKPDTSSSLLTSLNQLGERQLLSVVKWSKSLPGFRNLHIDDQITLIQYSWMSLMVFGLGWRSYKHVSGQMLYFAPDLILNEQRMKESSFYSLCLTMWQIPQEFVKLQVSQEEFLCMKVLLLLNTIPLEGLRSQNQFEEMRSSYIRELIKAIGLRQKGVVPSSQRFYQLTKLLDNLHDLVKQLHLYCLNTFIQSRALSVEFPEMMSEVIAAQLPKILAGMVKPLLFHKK

[7] = target: T4, Alpha-1D adrenergic receptor (Homo sapiens, UniProt P25100); format: cell membranes, HEK293, Membrane; conditions: hek293; also: in other assays of this panel Not Active means under 50% inhibition at 10 µM
T4 sequence (P25100 whole entry): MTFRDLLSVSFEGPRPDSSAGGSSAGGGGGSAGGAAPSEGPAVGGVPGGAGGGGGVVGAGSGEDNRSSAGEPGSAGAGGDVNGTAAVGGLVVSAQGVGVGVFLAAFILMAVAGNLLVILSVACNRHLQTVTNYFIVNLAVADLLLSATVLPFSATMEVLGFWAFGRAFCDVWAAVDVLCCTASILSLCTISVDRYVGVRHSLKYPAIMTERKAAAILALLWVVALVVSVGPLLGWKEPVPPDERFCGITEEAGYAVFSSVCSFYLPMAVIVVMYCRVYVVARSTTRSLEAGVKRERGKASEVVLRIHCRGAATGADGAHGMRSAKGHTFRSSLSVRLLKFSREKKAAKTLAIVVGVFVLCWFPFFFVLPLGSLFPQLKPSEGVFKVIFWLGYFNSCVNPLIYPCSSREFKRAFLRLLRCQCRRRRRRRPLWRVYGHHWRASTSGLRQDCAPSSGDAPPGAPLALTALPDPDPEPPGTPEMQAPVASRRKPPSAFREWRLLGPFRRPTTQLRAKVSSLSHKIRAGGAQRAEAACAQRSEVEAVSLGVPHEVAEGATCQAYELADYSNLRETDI

[8] = target: Prostaglandin G/H synthase 1 (Homo sapiens, UniProt P23219); test: biochemical; format: tissue-based, Platelet; conditions: platelet;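 also: inhibition of COX-1 enzyme activity, with arachidonic acid supplied as substrate; in other assays of this panel Not Active means under 50% inhibition at 10 µM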
[9] = target: Vasopressin V1a receptor (Homo sapiens, UniProt P37288); format: cell membranes, Membrane; conditions: hek293; also: in other assays of this panel Not Active means under 50% inhibition at 10 µM
[10] = DRUGMATRIX: Calcium Channel Type L, Phenylalkylamine radioligand binding (ligand: [3H] (-)-Desmethoxyverapamil (D-888)); format: cell membranes, Rattus norvegicus, Wistar, Brain, Membrane; conditions: Not Active = under 50% inhibition at 10 µM
[11] = target: C-C chemokine receptor type 2 (Homo sapiens, UniProt P41597); format: cell membranes, CHO-K1, Membrane; conditions: cho-k1; also: in other assays of this panel Not Active means under 50% inhibition at 10 µM
[12] = target: Sigma non-opioid intracellular receptor 1 (Homo sapiens, UniProt Q99720); test: DRUGMATRIX: Sigma1 radioligand binding (ligand: [3H] Haloperidol); format: cell membranes, Jurkat, Membrane; conditions: jurkat; Not Active = under 50% inhibition at 10 µM
[13] = DRUGMATRIX: Atrial Natriuretic Factor (ANF) radioligand binding (ligand: [125I] ANF (rat)); format: cell membranes, Cavia porcellus, Dunkin-Hartley, Adrenal gland, Membrane; conditions: Not Active = under 50% inhibition at 10 µM

Sequence of Mitogen-activated protein kinase 1 (P28482 whole entry): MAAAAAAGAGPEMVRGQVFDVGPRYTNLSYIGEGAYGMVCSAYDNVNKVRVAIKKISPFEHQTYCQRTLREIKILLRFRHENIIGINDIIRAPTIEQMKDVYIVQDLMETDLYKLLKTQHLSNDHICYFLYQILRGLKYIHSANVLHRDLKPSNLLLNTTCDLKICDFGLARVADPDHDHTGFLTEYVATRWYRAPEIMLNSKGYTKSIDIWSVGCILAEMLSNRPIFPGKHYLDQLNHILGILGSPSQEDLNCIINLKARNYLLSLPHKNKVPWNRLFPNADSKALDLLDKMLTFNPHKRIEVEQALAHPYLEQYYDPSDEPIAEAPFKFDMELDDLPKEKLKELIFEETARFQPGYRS
Sequence of Sigma non-opioid intracellular receptor 1 (Q99720 whole entry): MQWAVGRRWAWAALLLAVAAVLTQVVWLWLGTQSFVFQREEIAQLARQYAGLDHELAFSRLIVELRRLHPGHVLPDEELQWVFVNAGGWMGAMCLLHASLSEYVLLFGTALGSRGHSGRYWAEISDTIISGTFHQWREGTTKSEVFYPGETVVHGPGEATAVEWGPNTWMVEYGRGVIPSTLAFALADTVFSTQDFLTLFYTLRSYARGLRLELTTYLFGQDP
Sequence of Cytochrome P450 2C19 (P33261 whole entry): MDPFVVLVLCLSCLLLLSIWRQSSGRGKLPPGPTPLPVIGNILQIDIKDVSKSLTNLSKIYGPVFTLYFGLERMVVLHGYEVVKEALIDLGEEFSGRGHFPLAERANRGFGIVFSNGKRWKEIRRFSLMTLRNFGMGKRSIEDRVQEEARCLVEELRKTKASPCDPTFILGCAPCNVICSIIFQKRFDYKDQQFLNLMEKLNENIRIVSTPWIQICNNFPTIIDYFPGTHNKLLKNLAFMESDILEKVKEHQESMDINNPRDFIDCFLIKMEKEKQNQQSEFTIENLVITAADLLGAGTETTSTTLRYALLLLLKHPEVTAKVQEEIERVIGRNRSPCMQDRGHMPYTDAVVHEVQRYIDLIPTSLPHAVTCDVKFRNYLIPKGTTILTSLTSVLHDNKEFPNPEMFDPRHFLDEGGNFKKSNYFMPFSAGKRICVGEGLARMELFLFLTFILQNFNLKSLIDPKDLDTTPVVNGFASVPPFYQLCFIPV
Sequence of Prostaglandin G/H synthase 1 (P23219 whole entry): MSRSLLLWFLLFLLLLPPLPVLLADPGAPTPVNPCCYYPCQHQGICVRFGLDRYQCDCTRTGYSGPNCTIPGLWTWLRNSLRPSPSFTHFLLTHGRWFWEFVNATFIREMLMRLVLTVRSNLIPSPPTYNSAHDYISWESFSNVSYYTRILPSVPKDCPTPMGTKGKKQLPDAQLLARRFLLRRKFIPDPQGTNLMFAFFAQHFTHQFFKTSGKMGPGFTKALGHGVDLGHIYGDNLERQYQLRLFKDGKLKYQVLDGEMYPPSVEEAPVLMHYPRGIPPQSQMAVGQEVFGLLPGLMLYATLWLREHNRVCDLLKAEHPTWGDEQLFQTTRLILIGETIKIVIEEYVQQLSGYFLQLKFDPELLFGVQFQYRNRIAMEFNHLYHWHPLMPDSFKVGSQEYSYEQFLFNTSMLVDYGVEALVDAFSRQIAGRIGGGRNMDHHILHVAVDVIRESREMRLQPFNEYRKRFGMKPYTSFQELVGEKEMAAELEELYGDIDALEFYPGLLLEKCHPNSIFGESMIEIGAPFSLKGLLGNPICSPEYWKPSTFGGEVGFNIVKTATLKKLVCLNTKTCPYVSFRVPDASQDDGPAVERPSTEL
Sequence of C-C chemokine receptor type 2 (P41597 whole entry): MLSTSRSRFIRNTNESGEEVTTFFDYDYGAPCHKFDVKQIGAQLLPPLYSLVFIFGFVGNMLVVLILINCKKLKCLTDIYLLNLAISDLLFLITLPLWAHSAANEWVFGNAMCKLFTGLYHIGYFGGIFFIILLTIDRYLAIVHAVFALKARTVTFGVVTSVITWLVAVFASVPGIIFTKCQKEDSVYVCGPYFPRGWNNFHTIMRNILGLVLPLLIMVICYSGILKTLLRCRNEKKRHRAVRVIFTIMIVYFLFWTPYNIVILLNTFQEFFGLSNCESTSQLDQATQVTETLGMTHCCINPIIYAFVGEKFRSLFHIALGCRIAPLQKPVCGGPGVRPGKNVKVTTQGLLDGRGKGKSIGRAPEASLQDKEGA
Sequence of Vasopressin V1a receptor (P37288 whole entry): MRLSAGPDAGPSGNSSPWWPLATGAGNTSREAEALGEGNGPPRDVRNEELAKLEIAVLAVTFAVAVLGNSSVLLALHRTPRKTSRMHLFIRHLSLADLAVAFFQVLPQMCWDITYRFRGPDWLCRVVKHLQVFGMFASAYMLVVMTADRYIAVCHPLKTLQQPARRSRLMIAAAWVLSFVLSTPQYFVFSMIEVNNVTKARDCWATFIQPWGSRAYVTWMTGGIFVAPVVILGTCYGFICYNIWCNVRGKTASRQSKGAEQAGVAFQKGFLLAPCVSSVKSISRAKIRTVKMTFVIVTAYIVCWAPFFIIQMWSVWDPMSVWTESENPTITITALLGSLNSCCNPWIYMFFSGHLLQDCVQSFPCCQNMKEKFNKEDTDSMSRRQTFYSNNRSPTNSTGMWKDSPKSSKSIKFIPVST

| Compound | IC50 ([1]; read-out: IC50) | Ki ([1]; read-out: Ki) | IC50 [2] | Ki [2] | IC50 [3] | IC50 [4] | IC50 [5] | Ki [5] | IC50 [6] | IC50 [7] | IC50 [8] | IC50 [9] | IC50 [10] | Ki [10] | IC50 [11] | IC50 [12] | IC50 [13] | Ki [13] | IC50 ([1]; cho-k1) |
| --- | --- | --- | --- | --- | --- | --- | --- | --- | --- | --- | --- | --- | --- | --- | --- | --- | --- | --- | --- |
| CCCCCCCCCc1ccc(O)cc1 [4-NONYLPHENOL] | 2570 nM | 1350 nM | Not Active | Not Active | Not Active | Not Active | Not Active | Not Active | Not Active | Not Active | Not Active | Not Active | Not Active | Not Active | Not Active | Not Active | Not Active | Not Active | – |
| CC1COc2c(N3CCN(C)CC3)c(F)cc3c(=O)c(C(=O)O)cn1c23 (configuration not stated) [OFLOXACIN] | – | – | Not Active | Not Active | Not Active | Not Active | Not Active | Not Active | Not Active | Not Active | Not Active | Not Active | Not Active | Not Active | Not Active | Not Active | Not Active | Not Active | Not Active |
| CC(C)(S)[C@@H](N)C(=O)O [PENICILLAMINE] | – | – | Not Active | Not Active | Not Active | Not Active | Not Active | Not Active | Not Active | Not Active | Not Active | Not Active | Not Active | Not Active | Not Active | Not Active | Not Active | Not Active | Not Active |
| CC(=O)CCCCn1c(=O)c2c(ncn2C)n(C)c1=O [PENTOXIFYLLINE] | – | – | Not Active | Not Active | Not Active | Not Active | Not Active | Not Active | Not Active | Not Active | Not Active | Not Active | Not Active | Not Active | Not Active | Not Active | Not Active | Not Active | Not Active |
| CCC1(c2ccccc2)C(=O)NCNC1=O [PRIMIDONE] | – | – | Not Active | Not Active | Not Active | Not Active | Not Active | Not Active | Not Active | Not Active | Not Active | Not Active | Not Active | Not Active | Not Active | Not Active | Not Active | Not Active | Not Active |
| C=C1[C@@H]2CCC3[C@@](CC[C@@H]4[C@H](C(=O)O)C[C@@H](O[C@@H]5O[C@H](CO)[C@@H](OS(=O)(=O)[O-])[C@H](OS(=O)(=O)[O-])[C@H]5OC(=O)CC(C)C)C[C@@]34C)(C2)[C@@H]1O.[K+].[K+] (some centres not stated) [ATRACTYLOSIDE] | – | – | Not Active | Not Active | Not Active | Not Active | Not Active | Not Active | Not Active | Not Active | Not Active | Not Active | Not Active | Not Active | Not Active | Not Active | Not Active | Not Active | Not Active |
| CC1(C)[C@@H](O[C@H]2O[C@H](C(=O)O)[C@@H](O)[C@H](O)[C@H]2O[C@@H]2O[C@H](C(=O)O)[C@@H](O)[C@H](O)[C@H]2O)CC[C@]2(C)[C@H]3C(=O)C=C4[C@@H]5C[C@@](C)(C(=O)O)CC[C@]5(C)CC[C@@]4(C)[C@]3(C)CC[C@@H]12 [GLYCYRRHIZIN] | – | – | Not Active | Not Active | Not Active | Not Active | Not Active | Not Active | Not Active | Not Active | Not Active | Not Active | Not Active | Not Active | Not Active | Not Active | Not Active | Not Active | Not Active |
| CC(C)n1c(/C=C/C(O)CC(O)CC(=O)O)c(-c2ccc(F)cc2)c2ccccc21 (configuration not stated) [FLUVASTATIN] | – | – | Not Active | Not Active | Not Active | Not Active | Not Active | Not Active | Not Active | Not Active | Not Active | Not Active | Not Active | Not Active | Not Active | Not Active | Not Active | Not Active | Not Active |
